In ChEMBL document CHEMBL4706736, “Modulating Androgen Receptor in the Therapeutic Intervention for Prostate Cancer and Kennedy's Disease” (2021):
Where a SMILES comes first, the peptide text is derived from it. [ ]: non-standard residue; d: D form. The star is where a group is joined. X1 = O=C(COc1c(-c2csc(N3CCOCC3)n2)ccc(F)c1F)NCCCCCCN*; X4 = O=C(COc1c(-c2csc(N3CCOCC3)n2)ccc(F)c1F)NCCCCN*; X2 = Fc1ccc(-c2csc(N3CCOCC3)n2)c(OCCOCCOCCN*)c1F; X3 = O=C(NCCCCCCN*)c1cccc2sc(N3CCOCC3)nc12; Dip = N[C@H](C(=O)O)C(c1ccccc1)c1ccccc1; Chg = N[C@H](C(=O)O)C1CCCCC1; NMeA = CN[C@@H](C)C(=O)O

System: CWR22R
Experiment: Antiproliferative activity against human 22Rv1 cells assessed as reduction in cell viability at 10 uM incubated for 48 hrs by automated cell counting analysis relative to control
Type: functional

**Q.** CN[C@@H](C)C(=O)N[C@H](C(=O)N1Cc2cc(OCCOCCOc3c(-c4csc(N5CCOCC5)n4)ccc(F)c3F)ccc2C[C@H]1C(=O)N[C@@H]1CCCc2ccccc21)C(C)(C)C was tested. Which inhibition at 10 µM did it give?
**A.** > 50%

**Q.** For O=C1CCC(N2C(=O)c3cccc(NCCCCCCNC(=O)c4cn(-c5csc(N6CCOCC6)n5)cn4)c3C2=O)C(=O)N1 (stereo unspecified), which inhibition at 10 µM is on record?
**A.** 0%

**Q.** For Cc1ncsc1-c1ccc([C@H](C)NC(=O)[C@@H]2C[C@@H](O)CN2C(=O)[C@@H](NC(=O)CCCCNC(=O)COc2c(-c3csc(N4CCOCC4)n3)ccc(F)c2F)C(C)(C)C)cc1, which inhibition at 10 µM is on record?
**A.** < 50%

**Q.** How did the inhibition at 10 µM turn out when NCCCCCCCCCCNc1cccc2c1C(=O)N(C1CCC(=O)NC1=O)C2=O (stereo unspecified) was run?
**A.** < 50%

**Q.** How did the inhibition at 10 µM turn out when COc1cc(C(=O)NCCOCCOCCOc2c(-c3csc(N4CCOCC4)n3)ccc(F)c2F)ccc1NC(=O)[C@@H]1N[C@@H](CC(C)(C)C)[C@](C#N)(c2ccc(Cl)cc2F)[C@H]1c1cccc(Cl)c1F was run?
**A.** > 50%

**Q.** Which inhibition at 10 µM does the source give for CN[C@@H](C)C(=O)N[C@H](C(=O)N1Cc2cc(OCCOCCOCCOc3c(-c4csc(N5CCOCC5)n4)ccc(F)c3F)ccc2C[C@H]1C(=O)N[C@@H]1CCCc2ccccc21)C(C)(C)C here?
**A.** > 50%

**Q.** Which inhibition at 10 µM does the source give for COc1cc(C(=O)NCCCCNC(=O)COc2c(-c3csc(N4CCOCC4)n3)ccc(F)c2F)ccc1NC(=O)[C@@H]1N[C@@H](CC(C)(C)C)[C@](C#N)(c2ccc(Cl)cc2F)[C@H]1c1cccc(Cl)c1F here?
**A.** > 50%

**Q.** With CN[C@@H](C)C(=O)N[C@H](C(=O)N1CCC[C@H]1C(=O)N[C@H](C(=O)NCCCCCCNC(=O)COc1c(-c2csc(N3CCOCC3)n2)ccc(F)c1F)C(c1ccccc1)c1ccccc1)C1CCCCC1 (H-[NMeA][Chg]P[Dip]-X1) as the compound, how does the inhibition at 10 µM read?
**A.** > 50%

**Q.** How did the inhibition at 10 µM turn out when CN[C@@H](C)C(=O)N[C@H](C(=O)N1CCC[C@H]1C(=O)N[C@H](C(=O)NCCOCCOCCOc1c(-c2csc(N3CCOCC3)n2)ccc(F)c1F)C(c1ccccc1)c1ccccc1)C1CCCCC1 (H-[NMeA][Chg]P[Dip]-X2) was run?
**A.** > 50%

**Q.** How did the inhibition at 10 µM turn out when CN[C@@H](C)C(=O)N[C@H](C(=O)N1CCC[C@H]1C(=O)N[C@H](C(=O)NCCCCCCNC(=O)c1cccc2sc(N3CCOCC3)nc12)C(c1ccccc1)c1ccccc1)C1CCCCC1 (H-[NMeA][Chg]P[Dip]-X3) was run?
**A.** > 50%

**Q.** Which inhibition at 10 µM does the source give for CN[C@@H](C)C(=O)N[C@H](C(=O)N1CCC[C@H]1C(=O)N[C@H](C(=O)NCCCCNC(=O)COc1c(-c2csc(N3CCOCC3)n2)ccc(F)c1F)C(c1ccccc1)c1ccccc1)C1CCCCC1 (H-[NMeA][Chg]P[Dip]-X4) here?
**A.** > 50%
